Test results: patent US11162073B2, “Methods for generating functional hematopoietic stem cells” (The Brigham and Women's Hospital, Inc., priority 2015, dated 2021)
“Also recorded” adds a separate entry of the source.

Tests used:
zebrafish embryos = zebrafish embryos incubated with stretch-activated ion channel modulators, qRT-PCR and WISH for HSPC surrogate markers; format: in vivo; details: control zebrafish embryos, incubation between 19-42 hpf
Text: An impact of circumferential stretch is communicated by member(s) of the […] superfamily, Trp-superfamily, ENaC/DEG superfamily, and/or Piezo family (36-39). […] However, the direct role of Trpv4 in HSC emergence has not been established. We therefore treated zebrafish embryos with a pan-inhibitor of Trpv channels (Ruthenium RED; (41)), Trpv4 antagonist (GSK 205; (42)), and Trpv4 agonist (GSK101; (29)) between 19-42 hpf, followed by qRT-PCR and WISH for HSPC surrogate markers (c-myb and runx1).

E11.5 AGM cells [1] = assay: transplant of treated E11.5 AGM cells into irradiated recipient mice, engraftment and multi-lineage reconstitution; format: in vivo, mouse; details: 2 e.e. AGM per recipient
Text: We first coated each well of the 6-well FlexCell plate using Fibronectin/Matrigel and allowed it to settle on the nylon membrane of each well. Then we seeded two embryo equivalent (e.e.) single-cell suspension of AGM (composed of endothelial, hemogenic endothelial, hematopoietic, vascular smooth muscle (VSMCs), and mesenchymal stromal cells)-derived cells in each FlexCell well, with a coating of Fibronectin/Matrigel allows AGM-derived (sorted or not sorted) cells to adhere to the bottom of the well. We filled each well with an explant culture medium containing Myelocult and growth factors (27, 28). […] After 6-48 hours of external stimulation of circumferential stretch, we harvested AGM-derived cells from the FlexCell plate and analyzed their capacity to make hematopoietic cells: (I) We performed CFU assays using Methocult media to count multi-potential granulocyte, erythroid, macrophage, megakaryocyte progenitors (GEMM), granulocyte-macrophage progenitors (CFU-GM, CFU-M, CFU-G), and erythroid progenitor (BFU-E) colonies after seven days of seeding AGM derived sorted cells. (II) We analyzed the expression levels of Runx1, c-Myb, Lmo2, Gata2, CD144, and Gata1. […] We analyzed long-term engraftment and multi-lineage reconstitution potential of donor cells for 16 weeks followed by serial-transplantation to differentiate between HSCs and hemogenic endothelial cells. […]

[2] = tested on: human umbilical vein endothelial cells (HUVEC); assay: incubation of HUVEC with Trpv4 agonist, intracellular calcium levels; format: cell-based
E11.5 AGM cells [3] = assay: E11.5 AGM explant culture with drugs followed by colony formation (CFU) assay; format: cell-based, mouse; details: for multipotent GEMM colony formation: E11.5 AGM, 24-48 hr incubation, CFU assay
Text: We first coated each well of the 6-well FlexCell plate using Fibronectin/Matrigel and allowed it to settle on the nylon membrane of each well. Then we seeded two embryo equivalent (e.e.) single-cell suspension of AGM (composed of endothelial, hemogenic endothelial, hematopoietic, vascular smooth muscle (VSMCs), and mesenchymal stromal cells)-derived cells in each FlexCell well, with a coating of Fibronectin/Matrigel allows AGM-derived (sorted or not sorted) cells to adhere to the bottom of the well. We filled each well with an explant culture medium containing Myelocult and growth factors (27, 28). We put these 6-well plates into the FlexCell machine and applied cyclic strain (4-12%) for 6-48 hours using customized pins hooked to the bottom of each well. We inserted the customized rubber gasket in several wells to simulate static control conditions as well. Next we added drugs modulating the stretch-activated ion channel signaling in a few wells undergoing the external cyclic strain. After 6-48 hours of external stimulation of circumferential stretch, we harvested AGM-derived cells from the FlexCell plate and analyzed their capacity to make hematopoietic cells: (I) We performed CFU assays using Methocult media to count multi-potential granulocyte, erythroid, macrophage, megakaryocyte progenitors (GEMM), granulocyte-macrophage progenitors (CFU-GM, CFU-M, CFU-G), and erythroid progenitor (BFU-E) colonies after seven days of seeding AGM derived sorted cells. (II) We analyzed the expression levels of Runx1, c-Myb, Lmo2, Gata2, CD144, and Gata1. (III) We also stained AGM-derived cells with fluorescently labeled conjugated antibodies to measure the expression levels of Flk1, CD144, CD41, c-Kit, & CD45.2. (IV) We injected two e.e. AGM (donor; CD45.2)-derived cells in sub-lethally irradiated CD45.1 (SJL; recipient) mice. We analyzed long-term engraftment and multi-lineage reconstitution potential of donor cells for 16 weeks followed by serial-transplantation to differentiate between HSCs and hemogenic endothelial cells. (V) We also performed limiting dilution assays to analyze the number of HSCs generated per AGM-derived cell following 2D circumferential stretch.
Using a customized bioreactor based on organ-on-a-chip (FIG. 4), we applied 2D circumferential stretch (6% cyclic strain, 24 hr) to a single cell suspension of two e.e. E11.5 AGM cells. In parallel, we also incubated two e.e. E11.5 AGM static cells with Trpv4 agonist (GSK101 (29)).
(§1) In mice, the first heartbeat occurs at E8.25, and HSCs begin to emerge from AGM-derived hemogenic endothelium between E10.5-E12.5 (10, 11). To investigate whether circumferential stretch-activated ion channels are also involved in mammalian HSC emergence, we incubated E11.5 AGM with non-specific SAC channels inhibitor (GdCl3) and pan-Trpv channel inhibitor (Ruthenium Red) in explant culture media and analyzed their hematopoietic CFU capacity, and the expression of endothelial and hematopoietic genes (CD41, CD45.2, c-Kit, Flk1, CD144).
To further investigate the influence of Trpv4 on HSC formation from hemogenic endothelial cells, we incubated E11.5 AGM (28) with Trpv4 agonist (GSK101, 4α-PDD (44)) and Trpv4 antagonist (GSK 205) for 24-48 hr (FIG. 9).

sih-silenced embryos = assay: silent heart (sih)-silenced zebrafish embryos incubated with trpv4 agonist, HSPC formation; format: in vivo
Procedure: Silent heart cardiac troponin (sih, tnnt2)-mutant embryos lack heartbeat and blood circulation (43). […] Because heartbeat-mediated pulse pressure on blood vessels stimulates HSC emergence, we studied whether the activation of the Trpv4 ion channels triggers HSC formation in the absence of a heartbeat and blood circulation. We therefore incubated sih-silenced embryos (casper or cd41:eGFP::flk1:mCherry) with trpv4 agonist (GSK101) between 19-42 hpf.

E11.5 AGM = E11.5 AGM explant culture, expression of endothelial and hematopoietic genes; format: cell-based, mouse; details: data not shown
Procedure: as §1

cdh5-silenced embryos = assay: cdh5-silenced zebrafish embryos incubated with NOS inhibitor, HSC formation; format: in vivo; details: incubation between 19-48 hpf
Text: In zebrafish the heart begins to beat around 23 hpf, the blood circulation begins at approximately 24-26 hpf, and definitive HSCs emerge from hemogenic endothelial cells in the AGM region between 26-48 hpf (11). Blood flow generates shear-stress on the ventral wall of the aortic endothelium and stimulates the endothelial-to-HSC transition by activating the NOS pathway (12, 13). When we performed time-lapse confocal imaging of both the control and the cdh5-silenced cd41:eGFP:flk1:mCherry embryos between 30-48 hpf, we found cdh5-silenced cd41:eGFP^low HSCs emerging from flk1:mCherry^+ endothelial cells despite early circulation arrest (FIG. 1A-B). In addition, we incubated cdh5-silenced embryos in the presence of L-NAME, a pharmacological inhibitor of NOS (12), between 19-48 hpf. […] Thus, HSCs would emerge from hemogenic endothelial cells, despite impaired circulation and NOS inhibition. These striking data led us to investigate shear stress-independent biomechanical and molecular mechanisms responsible for the endothelial transition to HSCs.

Row | Structure (SMILES) | expression of HSPC surrogate markers runx1 and c-myb (zebrafish embryos) | multipotent GEMM colony formation (E11.5 AGM cells [3]) | expression of hematopoietic genes (E11.5 AGM) | other results
1 | CC(C)C[C@H](NC(=O)c1cc2ccccc2s1)C(=O)N1CCN(C(=O)[C@H](CO)NS(=O)(=O)c2ccc(Cl)cc2Cl)CC1 [GSK101] | enhances HSPC formation; also recorded: increased the expression of HSPC markers | Increase in GEMM; also recorded: stimulates multipotent progenitor (GEMM) formation; also recorded: enhanced GEMM formation; also recorded: stimulated multipotent GEMM formation | – | percentage of engraftment (CD45.2+ peripheral blood chimerism) (E11.5 AGM cells [1]; after 8 weeks): Increase; also recorded: increased the percentage of engraftment; multi-lineage reconstitution (E11.5 AGM cells [1]; peripheral blood after 8 weeks): increased; [Ca+2]i levels [2]: increase in [Ca^+2]i levels; formation of cd41:eGFP+ HSCs (sih-silenced embryos; sih-silenced cd41-eGFP:flk1-mCherry embryos): rescues the formation of cd41:eGFP^+ HSCs; HSPC formation (mRNA expression levels of runx1 and c-myb) (sih-silenced embryos; sih-silenced embryos, 19-42 hpf, WISH and qRT-PCR): rescues hematopoietic stem progenitor cell (HSPC) formation
2 | [Cl][Gd]([Cl])[Cl] [GdCl3, Gadolinium Chloride] | reduced | – | reduced | multipotent GEMM colony formation (E11.5 AGM cells [3]; listed as GdC13): attenuates GEMM formation; also recorded: reduced
3 | COC(=O)[C@@H](N)CCCNC(=N)N[N+](=O)[O-] [L-NAME] | – | – | – | HSC formation (zf-runx1 and zf-c-Myb expression) (cdh5-silenced embryos): did not abolish HSC formation
4 | CCCCCCOC(=O)[C@]1(O)C[C@@H]2O[C@@]1(C)n1c3ccccc3c3c4c(c5c6ccccc6n2c5c31)C(=O)NC4 [KT5720] | – | – | – | Trpv4 agonist-mediated increase in multipotent GEMM formation (E11.5 AGM cells [3]; E11.5 AGM explant culture, together with Trpv4 agonist GSK101, 24 hr): attenuated; also recorded: attenuates stimulating impact of Trpv4 agonist
5 | N.N.N.N.N.N.N.N.N.N.N.N.N.N.[Cl-].[Cl-].[Cl-].[Cl-].[Cl-].[Cl-].[O-2].[O-2].[Ru+3].[Ru+3].[Ru+4] [Ruthenium Red] | reduction in runx1 and c-myb expression | attenuates GEMM formation; also recorded: reduced | reduced | –
6 | CCCCCCCCCC(=O)O[C@@H]1[C@@H](C)[C@@]2(O)[C@@H](C=C(CO)C[C@@]3(O)C(=O)C(C)=C[C@@H]23)[C@@H]2C(C)(C)[C@]12OC(=O)CCCCCCCCC [4α-PDD, 4alpha-phorbol 12,13-didecanoate] | – | stimulates multipotent progenitor (GEMM) formation; also recorded: stimulated multipotent GEMM formation | – | –
